The values below come from patent publication US5179093A, “Quinoline-diones” (Schering Corporation, priority 1991, dated 1993).

The structures appear in SMILES notation. Converted amounts (≈) assume the structure as drawn.

A word on the IC50: it is the concentration at which inhibition is half-maximal.

The test system of series [1] is HSV-2, strain MS. In words: Therapeutic guinea pig model of HSV infection (genital lesions). In kind it is in vivo. The procedure:
The in vivo assessment of anti-HSV efficacy was determined in the prophylactic guinea pig model of HSV infection described by Stanberry et al (1982) The Journal of Infectious Diseases-vol. 146, No. 3, pages 397-404, which is hereby incorporated by reference. Dosing of guinea pigs was comprised of an initial treatment with test compound given 24 hours prior to virus infection and subsequent administration of the compound every eight hours (T.I.D.) for a total of 10 days. Test compounds were administered subcutaneously in 0.5% buffered methyl cellulose at a dose of 60 mg per kg body weight of the animal. Animals were monitored daily for the development of genital lesions and neurological symptomology, both of which were recorded and compared to the results obtained with parallel groups which received placebo or acyclovir treatment. Efficacy was evaluated for each compound by scoring the ability of the compound to ameliorate genital lesions produced by infection with HSV-2, strain MS, expressed as Activity Coefficients. The Activity Coefficients. were calculated as follows: The ability of a test compound to ameliorate lesions was plotted graphically with the number of days being on one axis, and the number of lesions being on the other axis. The area under the resultant curve was put in the numerator of a fraction with the denominator either being the area under a similar curve where placebo was employed(EXP/PL), or the area under the curve where acyclovir was employed (EXP/ACV). Thus (Exp/PL) is the ratio of test compound to placebo. (Exp/ACV) is the ratio of test compound to acyclovir. […] In the therapeutic guinea pig model, dosing of guinea pigs started 24 hours after they were infected with the virus. Subsequent administration of the test compound was done every eight hours for a total of ten days. Activity coefficients were calculated in the same manner as described for the prophylactic guinea pig model above.

Series [2] in a line: Compound toxicity assay: inhibition of HeLa cell translation (^3 H-LEU assay). The following applies: human; HeLa cells, overnight (24 hours) treatment, tritiated leucine incorporation; read-out: CYTOTOXICITY ^3 H--LEU ASSAY IC50. In kind it is cell-based. The procedure:
HeLa cells were treated with inhibitory compound for 24 hours, after which levels of translational activity were assayed.
For assay of translational activity, HeLa cultures were grown to 80% confluency in 96 well microtiter plates, treated with appropriate concentrations of compound in 2% EMEM during an overnight incubation at 37° C., then rinsed with HBSS and overlaid with […] of 2% EMEM containing 8 uCi of tritiated leucine (^3 H-LEU, 141 Ci/mMol, Amersham Corp., Arlington Heights Ill.). After 1 hr incubation at 36.5° C., the cells were rinsed twice with phosphate buffered saline (PBS) and lysed in 400 ul/well of 1×PBS, 0.5% sodium dodecyl sulphate (SDS). After a 10 minute incubation at 36.5° C., the contents of the well were transferred to a well in a Millititer HA microfiltration plate (Millipore Corp., Bedford, MA). The TCA insoluble proteins were precipitated onto the filter disc by a 10 minute fixation with 5% TCA, followed by filtration under vacuum and three 10 minute rinses with 95% ethanol. The filters were dried at room temperature, cut from the milltitier plate and transferred to scintillation vials. TCA precipitable counts were assayed in 5 ml of Scintisol (Isolab, Akron, Ohio). The inhibitory activity of a compound was plotted versus the concentration and an IC50 value (that concentration of the compound required to decrease cellular translational activity by 50%) was derived for each compound.

Series [3] concerns HSV-2, strain MS. The experiment in a line: Prophylactic guinea pig model of HSV infection (genital lesions). The series is classed as in vivo. The following applies: 60 mpk × 3/24 hr, sc. The procedure:
The in vivo assessment of anti-HSV efficacy was determined in the prophylactic guinea pig model of HSV infection described by Stanberry et al (1982) The Journal of Infectious Diseases-vol. 146, No. 3, pages 397-404, which is hereby incorporated by reference. Dosing of guinea pigs was comprised of an initial treatment with test compound given 24 hours prior to virus infection and subsequent administration of the compound every eight hours (T.I.D.) for a total of 10 days. Test compounds were administered subcutaneously in 0.5% buffered methyl cellulose at a dose of 60 mg per kg body weight of the animal. Animals were monitored daily for the development of genital lesions and neurological symptomology, both of which were recorded and compared to the results obtained with parallel groups which received placebo or acyclovir treatment. Efficacy was evaluated for each compound by scoring the ability of the compound to ameliorate genital lesions produced by infection with HSV-2, strain MS, expressed as Activity Coefficients. The Activity Coefficients. were calculated as follows: The ability of a test compound to ameliorate lesions was plotted graphically with the number of days being on one axis, and the number of lesions being on the other axis. […]

Another series concerns HSV-2 (strain MS). In words: Transient expression of beta galactosidase in transfected HeLa cells superinfected with HSV-2 (HSV-β-GAL assay). The series is classed as cell-based. The conditions noted are these: Human alphaherpesvirus 2, plasmid pON 245^ori-, moi=5 pfu/cell, 24 hours, read-out: ANTI-HSV ACTIVITY HSV-β-GAL ASSAY IC50. On the procedure:
HeLa and Vero cell cultures were maintained in Eagles Minimal Essential Medium (EMEM) which was supplemented with glutamine, penicillin, streptomycin and 10% fetal calf serum (10% EMEM). Stock cultures of HSV-2 (strain MS available from ATCC VR-540) were grown in and harvested from Vero cells. Viral stocks were titered in Vero cells according to established procedures.
Plasmid pON 245^ori- contains the promoter of the HSV-1 thymidine kinase (tk) gene located immediately 5' of the E. coli lac Z gene. In this arrangement, the tk promoter controls transcription from the bacterial gene in transient expression assays. Additionally, an SV40 polyadenylation signal is present at the 3' end of the lac Z gene to allow for the efficient translation of the mRNA in eucaryotic cells. The expression of beta galactosidase in a transient assay using pON 245^ori- is dependent upon superinfection of the transfected cells with HSV. […] For example see U.S. application Ser. No. 07/435,491 filed Sep. 5, 1989, the disclosure of which is incorporated herein by reference thereto.
HeLa cells were seeded into 96 well microtiter plates and allowed to grow to 80% confluency (approximately 35,000 cells/well). One half microgram of plasmid pON 245^ori- DNA was introduced into the cells of each well by the […] precipitation technique (Grahman and Van der Eb, 1973). Four to six hours later, the cells were rinsed with hank's Balanced Salt Solution (HBSS), overlaid with 10% EMEM and incubated at 37° C. At 24 hrs post-transfection, cells were rinsed, overlaid with 10% EMEM again and re-incubated at 37° C. At 48 hrs post-transfection, cells were rinsed and overlaid with either EMEM containing 2% fetal calf serum (2% EMEM), 2% EMEM containing HSV-2 (strain MS, Multiplicity of Infection [moi]=5 pfu/cell) or 2% EMEM containing HSV-2 and the appropriate concentration of Schering compound to be tested. Twenty-four hours later, the cells were harvested and assayed for beta galactosidase activity as described below.
All determinations of beta galactosidase activity were performed in 96 well microtiter plates. The intracellular level of beta galactosidase activity in each well was determined from cell lysates of the monolayer cultures. Aliquots were assayed by incubation in the presence of beta galactosidase substrate, 4-methylumbelliferyl-β-D-galactoside (MUG, 125 ug/ml, Sigma), for 2 hours. The generation of fluorescent product was quantified on a Microfluor microfluorimeter (Dynatech) after addition of 0.1M glycine, pH 10.3 (Spaete and Mocarski, 1985). The inhibitory activity of a compound was plotted versus the concentration and an IC50 value (the concentration of compound required to reduce beta glactosidase expression by 50%) was obtained for each compound tested.

The subject of series [4] is herpes virus. The conditions noted are these: added to lidocaine or lidocaine hydrochloride; Haines et al.; cited from earlier work.
The subject of another series is HSV-1. The conditions noted are these: U.S. Pat. No. 4,757,088; cited from earlier work.
In a further series the test system is HSV. The following applies: according to Haines et al.; cited from earlier work.
A further series has as its system HSV-2. The conditions noted are these: U.S. Pat. No. 4,757,088; cited from earlier work.
Series [5] concerns herpes virus. The conditions noted are these: U.S. Pat. No. 4,757,088; cited from earlier work.

With `Nc1nc2c(ncn2COCCO)c(=O)[nH]1` [ACV, 9-[(2-hydroxyethoxy)methyl]guanine, reference compound], the “efficacy of acyclovir in the therapeutic study” value in the series on HSV-2, strain MS [1] (therapeutic study with Example 45) is “not efficaceous”.
In the case of `O=C1C(=CNCc2ccccc2)C(=O)N(Cc2ccccc2)c2ccccc21` [EX. 23, (E,Z)1-Benzyl-3-Benzylaminomethylene-Quinolin-2,4(1H)-Dione], the CC50 at 24 h in [2] was greater than 100 µg/mL. Besides, the “Activity Coefficient (Exp/ACV)” value in the series with HSV-2, strain MS [3] (lesion score AUC days 1-10, ratio test compound to acyclovir) came to 4.05 ± 2.21. For the same molecule, the “Activity Coefficient (Exp/PL)” value in the series with HSV-2, strain MS [3] (lesion score AUC days 1-10, ratio test compound to placebo) was 0.67 ± 0.03. Further, the concentration for half-maximal inhibition (IC50) in the series with HSV-2 (strain MS) turned out to be 5 µg/mL (≈ 13.6 µM).
`COc1ccc(OCCCOCN2C(=O)C(=CNCc3ccncc3)C(=O)c3ccccc32)c(Cl)c1` [EX. 43, (E,Z) 1-[3(2-chloro-4-methoxyphenoxy)-propyloxymethyl]-3-(4-pyridylmethylamino)methylene-quinolin-2,4(1H)dione]: the CC50 at 24 h in series [2] came to 30 µg/mL (≈ 59.1 µM). Moreover, the IC50 in the series on HSV-2 (strain MS) stood at 10 µg/mL (≈ 19.7 µM).
The corresponding values for `CCNC=C1C(=O)c2ccccc2N(C)C1=O` [EX. 44, (E,Z) 1-methyl-3-ethylaminomethylene-quinolin-2,4(1H)dione] are 43 µg/mL (≈ 187 µM) and 14 µg/mL (≈ 60.8 µM).
Consider `O=C1C(=CNCc2ccccc2)C(=O)N(Cc2ccccc2)c2ccsc21` [EX. 45, (E,Z) 4-benzyl-6-benzylaminomethylene-thieno[3,2-b]pyridine-5,7(4H,6H)-dione], for which the “Activity Coefficient (Exp/PL)” value in the series on HSV-2, strain MS [1] (30 mpk × 3/24 hr, sc, therapeutic, lesion score AUC days 1-10, ratio test compound to placebo) stood at 0.71. For the same molecule, in the series on HSV-2, strain MS [1] (30 mpk × 3/24 hr, sc, therapeutic, lesion score AUC days 1-10, ratio to acyclovir, ACV was not efficaceous in this study), the “Activity Coefficient (Exp/ACV)” value is listed as 0.93. Further, the CC50 at 24 h in [2] is 40 µg/mL (≈ 107 µM). The IC50 with HSV-2 (strain MS) worked out at 4 µg/mL (≈ 10.7 µM).
As to `O=C1C(=CNCc2ccncc2)C(=O)N(Cc2ccccc2)c2ccsc21` [EX. 46], the CC50 at 24 h in series [2] stood at 23 µg/mL (≈ 61.3 µM). In addition, the IC50 in the series with HSV-2 (strain MS) is 3 µg/mL (≈ 7.99 µM).
With `CC(C)(CO)[C@@H](O)C(=O)NCCCO` [dexpanthenol], the “enhancement of antiviral activity” value in the series on herpes virus [4] was “significantly enhances the antiviral activity”.
For `CCN(CC)CC(=O)Nc1c(C)cccc1C` [lidocaine, 2-(diethylamino)-N-(2,6-dimethylphenyl)acetamide], the “antiviral activity in cell culture against HSV-1” value in the series on HSV-1 is “antiviral agent in cell culture against HSV-1 and HSV-2”. Also, the “treatment of HSV oral and genital lesions in humans” value with HSV is “particularly effective”. Besides, in the series on HSV-2, the “antiviral activity in cell culture against HSV-2” value was “antiviral agent in cell culture against HSV-1 and HSV-2”. In the series on herpes virus [5], the “ability to treat herpes virus infections of mammals” value is recorded as “able to treat herpes virus infections of mammals”.
With `CC(C)(CO)[C@@H](O)C(=O)NCCC(=O)O` [pantothenic acid], in the series with herpes virus [4], the “enhancement of antiviral activity” value was “significantly enhances the antiviral activity”.
